Values of other authors in paper PMC7904743, “WIDOCK: a reactive docking protocol for virtual screening of covalent inhibitors” (Journal of Computer-Aided Molecular Design, 2021).
Like-named read-outs stand apart in the source and are kept apart here.

Tests used:
[1] = thiol reactivity, cited from earlier work
[2] = tested on: NUDT7; conditions: protein labeling at 200 μM; experimental actives if % labeling higher than 50%; cited from earlier work
[3] = tested on: OTUB2; conditions: experimental actives if % labeling higher than 50%, cited from earlier work
[4] = natural log of average rate constant k
[5] = natural logarithm of average rate constant
[6] = natural log of average kinetic rate constant
[7] = natural log of average rate constant

Compound	ln(avg k) [1, 4]	ln(avg k) [1, 5]	NUDT7 % labeling [2] [%]	OTUB2 % labeling [3] [%]	ln(avg k) [1, 6]	ln(avg k) [1, 7]	OTUB2 % labeling ([3]; OTUB2 protein labeling) [%]
Cc1csc(CC(=O)NNC(=O)CCl)n1 [PCM-0102095, Cc1csc(CC(=O)NNC(=O)CCl)n1]	-16.857	-16.857	0	51	–	–	–
Cc1nc(C2(NC(=O)CCl)CCCCCC2)no1 [PCM-0102944, Cc1nc(C2(NC(=O)CCl)CCCCCC2)no1]	–	–	0	–	-17.037	-17.037	0
O=C(CCl)Nc1ccc2[nH]c(=O)[nH]c2c1 [PCM-0102866, O=C(CCl)Nc1ccc2[nH]c(=O)[nH]c2c1]	–	–	0	–	-15.702	-15.702	30
COC(=O)c1cc(Cl)cc(Cl)c1NC(=O)CCl [PCM-0102912, COC(=O)c1cc(Cl)cc(Cl)c1NC(=O)CCl]	–	–	17	–	-17.100	-17.100	0
CC1CCN(C(=O)CCl)CC1 [PCM-0102945, CC1CCN(C(=O)CCl)CC1]	–	–	0	–	-16.826	-16.826	0
CC12CCC(CC1=NNC(=O)CCl)C2(C)C (centres unmarked) [PCM-0102498, CC12CCC(CC1=NNC(=O)CCl)C2(C)C]	-15.811	-15.811	0	0	–	–	–
COC(=O)C1(NC(=O)CCl)CCCCC1 [PCM-0102734, COC(=O)C1(NC(=O)CCl)CCCCC1]	–	-16.826	0	0	–	-16.826	–
N#CC(c1ccccc1)N1CCN(C(=O)CCl)CC1 (centres unmarked) [PCM-0102381, N#CC(c1ccccc1)N1CCN(C(=O)CCl)CC1]	-15.106	-15.106	11	0	–	–	–
CCOC(=O)N1CCC(NC(=O)CCl)CC1 [PCM-0102255, CCOC(=O)N1CCC(NC(=O)CCl)CC1]	-15.985	-15.985	0	24	–	–	–
Cc1nn(-c2ccccc2)c(C)c1NC(=O)CCl [PCM-0102501, Cc1nn(-c2ccccc2)c(C)c1NC(=O)CCl]	-16.489	-16.489	9	9	–	–	–
CSc1ccc(NC(=O)CCl)cc1 [PCM-0102772, CSc1ccc(NC(=O)CCl)cc1]	–	–	13	–	-15.893	-15.893	28
O=C(CCl)NC1CCCC1 [PCM-0102250, O=C(CCl)NC1CCCC1]	-16.419	-16.419	0	0	–	–	–
CC(C)N(CC(F)(F)F)C(=O)CCl [PCM-0102516, CC(C)N(CC(F)(F)F)C(=O)CCl]	-17.383	-17.383	0	0	–	–	–
O=C(CCl)Nc1cccc(N2CCCC2=O)c1 [PCM-0102179, O=C(CCl)Nc1cccc(N2CCCC2=O)c1]	-15.495	-15.495	12	47	–	–	–
